For data set [1], the system named is hES cells. Put plainly: In vivo imaging and migration assay. Format: cell-based, human. As to the method: 24-well plates were coated by extracellular matrix proteins and blocked by O3 medium containing bovine serum albumin. The ES cells were plated at cell density of 30,000-40,000 cells/cm^2 onto extracellular matrix-coated plates and left to adhere for half an hour in a cell incubator. After that, the plate was transferred into high content imaging system Operetta (PerkinElmer) equipped with environmental control unit, which allowed to keep 37° C., 5% CO2. For two movies that were made, the brightfield images were taken once in 15 minutes during 24 hours after plating using Harmony software (PerkinElmer), exported, and analyzed using ImageJ software (NIH, the US). For migration assay the images were taken every seven minutes during 18 hours after plating. Images acquired between the fifth and seventh hours after plating were analyzed using MTrackJ plug-in (University Medical Center, Rotterdam, The Netherlands). 100 attached cells on each coating were traced and mean distances from the current to the previous point of the track were calculated. Error bars show standard error of the mean s.e.m. (n=100).

The subject of data set [2] is PI3K/Akt and MEK1/Erk pathways. Put plainly: Western blot with antibodies to phospho-Akt / phospho-Erk. In kind it is cell-based, human. Conditions: data not shown. The protocol: HS 181 cells were trypsinized into single cell suspension as described above. For inhibition experiments, the cells were kept in O3 medium with blocking antibodies or pathway inhibitors for 30 minutes and then 450K cells were plated on 35 mm dishes precoated with the appropriate matrix coating. For other experiments, same number of cells was plated directly after trypsinization. In all cases the cells were allowed to spread for 1 hour at 37° C., 5% CO2. After two washings in ice-cold PBS, the plates with cells were snap frozen in liquid nitrogen and stored at −80° C. To prepare samples for western blots and ELISA, the plates were slowly thawed and kept on ice with 100-150 μl of lysis buffer (50 mM Tris-HCl, pH7.5, 150 mM NaCl, 0.5% deoxycholate, 0.5% SDS, 1% Triton X-100, 1% Igepal, Complete™ (Roche) and Phospho-Stop™ (Roche)) on top. Then, the cells were scraped, pipetted and sheared through a 27G ¾″ needle. After that, the cell pellets were clarified by centrifugation at 16,100 rcf for 15 minutes at 4° C. For western blots, 4-12% gradient gels were used for SDS electrophoresis and the proteins were transferred to PVDF membranes. The membrane was hybridized with the antibody of interest according to the manufacturer's instructions. […] For the densitometry analysis the films were scanned at 2,400 dpi and analyzed by the Chemilmager5500 program (1D-Multi Line densitometry mode). […]
Background: A western blot detects proteins with antibodies after separation by electrophoresis.

For data set [3], the system named is human ES cells. Kind of data set: Cell adhesion / single cell survival 1 day after plating (Example 1). The settings on record: for adhesion at 1 day compared with dishes including the ROCK inhibitor: coating without additives. Format: cell-based. The protocol:
Ninety-six-well tissue cell culture plates were coated overnight at 4° C. with sterile solutions of the ECM proteins mouse LN-111 (Invitrogen), human recombinant LN-511, and human recombinant LN-521, all at a concentration of 30 μg/ml (5 μg/cm^2). For control cells, BD Matrigel™ hESC qualified (BD Biosciences) was used according to the manufacturer's instructions.
The assay was performed as described (Extracellular Matrix Protocols, 2000). Briefly, 96-well plates were coated by extracellular matrix proteins as described above and blocked by O3 medium containing bovine serum albumin. The ES cells were plated at a cell density of 600 cell/mm^2 upon extracellular matrix-coated plates and were left to adhere for either 1 hour or 1 day at the cell incubator. Non-adherent cells were washed away, and adherent cells were fixed for 20 min by 5% glutaraldehyde, stained by 0.1% Crystal Violet.

Data set [4] relates to human ES and iPS cells. Put plainly: Long-term self-renewal culture on LN-521 (Example 2). Format: cell-based.
The subject of data set [5] is Oct4 and Nanog mRNA. Put plainly: Real-time quantitative RT-PCR of pluripotency markers (Example 1). Format: cell-based, human. Conditions: after several passages. As to the method: Total RNA was isolated and cDNA was synthesized as described in Rodin et al., Nature Biotechnol., vol. 28, pp. 611-615 (2010). Real-time quantitative RT-PCR Taqman assays were performed using the Applied Biosystems 7300 Real-Time PCR System. All reactions were done in quadruplicate with predeveloped gene expression assay mix (Applied Biosystems) containing primers and a probe for the mRNA of interest. Additional reactions for each experiment included predeveloped gene expression assay mix for GAPDH, used to normalize the RNA input. All data were analyzed with 7300 System SDS Software version 1.4.

Data set [6] has as its target Integrin α6β1 (Homo sapiens, UniProt P05556+P23229). The settings on record: cited from earlier work.

Chain of Integrin α6β1 (P23229 24-1130): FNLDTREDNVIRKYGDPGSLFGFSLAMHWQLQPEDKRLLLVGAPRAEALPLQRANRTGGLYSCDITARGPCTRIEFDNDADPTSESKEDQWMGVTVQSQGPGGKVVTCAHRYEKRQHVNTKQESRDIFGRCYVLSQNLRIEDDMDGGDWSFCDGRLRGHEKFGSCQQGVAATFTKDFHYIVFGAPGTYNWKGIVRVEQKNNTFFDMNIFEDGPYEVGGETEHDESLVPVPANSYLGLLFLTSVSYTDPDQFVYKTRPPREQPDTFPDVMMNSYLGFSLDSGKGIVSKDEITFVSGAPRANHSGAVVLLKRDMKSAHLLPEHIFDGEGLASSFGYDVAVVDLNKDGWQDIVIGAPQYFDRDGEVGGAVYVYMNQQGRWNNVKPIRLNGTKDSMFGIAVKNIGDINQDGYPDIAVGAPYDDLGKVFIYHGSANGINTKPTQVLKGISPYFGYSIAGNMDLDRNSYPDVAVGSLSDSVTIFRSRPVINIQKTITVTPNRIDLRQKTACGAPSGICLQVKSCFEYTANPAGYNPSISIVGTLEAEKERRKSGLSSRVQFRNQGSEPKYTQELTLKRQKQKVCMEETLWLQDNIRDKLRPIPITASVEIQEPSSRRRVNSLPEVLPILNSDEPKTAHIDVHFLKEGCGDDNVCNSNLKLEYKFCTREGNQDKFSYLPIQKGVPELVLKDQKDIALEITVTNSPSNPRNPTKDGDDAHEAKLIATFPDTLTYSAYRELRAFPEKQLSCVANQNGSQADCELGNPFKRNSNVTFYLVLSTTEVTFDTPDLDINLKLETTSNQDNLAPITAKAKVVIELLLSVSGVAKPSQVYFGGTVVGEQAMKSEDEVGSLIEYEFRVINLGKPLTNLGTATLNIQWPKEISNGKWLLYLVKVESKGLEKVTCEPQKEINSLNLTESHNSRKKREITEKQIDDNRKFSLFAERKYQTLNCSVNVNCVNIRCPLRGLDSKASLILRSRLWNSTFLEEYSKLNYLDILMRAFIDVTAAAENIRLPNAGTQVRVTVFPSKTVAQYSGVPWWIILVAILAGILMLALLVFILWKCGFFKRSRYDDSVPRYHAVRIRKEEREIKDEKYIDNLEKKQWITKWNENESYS
Chain of Integrin α6β1 (P05556 21-798): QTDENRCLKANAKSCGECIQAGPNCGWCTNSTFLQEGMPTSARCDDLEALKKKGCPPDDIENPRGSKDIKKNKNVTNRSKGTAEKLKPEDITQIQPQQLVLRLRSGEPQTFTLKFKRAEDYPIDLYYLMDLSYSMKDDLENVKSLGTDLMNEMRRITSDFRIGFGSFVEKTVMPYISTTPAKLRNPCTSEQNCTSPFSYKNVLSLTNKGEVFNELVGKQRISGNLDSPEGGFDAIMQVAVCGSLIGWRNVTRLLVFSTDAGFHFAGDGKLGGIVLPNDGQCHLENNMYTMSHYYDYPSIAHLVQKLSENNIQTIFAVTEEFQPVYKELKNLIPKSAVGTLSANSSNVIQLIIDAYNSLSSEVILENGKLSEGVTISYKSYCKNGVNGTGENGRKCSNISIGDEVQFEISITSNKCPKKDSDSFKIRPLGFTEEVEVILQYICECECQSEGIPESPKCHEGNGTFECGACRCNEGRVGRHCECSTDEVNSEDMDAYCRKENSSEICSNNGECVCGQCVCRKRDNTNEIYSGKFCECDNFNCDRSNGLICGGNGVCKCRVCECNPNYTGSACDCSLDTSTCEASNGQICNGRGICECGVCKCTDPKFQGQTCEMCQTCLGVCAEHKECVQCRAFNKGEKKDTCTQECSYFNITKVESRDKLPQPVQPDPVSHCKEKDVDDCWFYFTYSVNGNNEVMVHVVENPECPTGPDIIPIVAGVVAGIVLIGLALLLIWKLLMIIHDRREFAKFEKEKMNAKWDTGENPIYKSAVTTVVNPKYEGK

Regarding “LN-521: protein formed by joining α5, β2 and γ1 laminin chains; human recombinant, produced in HEK293 cells”, in data set [1] (between the fifth and seventh hours after plating), the “motility of hES cells compared with other coatings” value is “higher”. In data set [1] (in vivo imaging), the “migration of cells compared with Matrigel (imaging)” value is recorded as “much faster”. For the same substance, the “PI3K/Akt pathway activity (phospho-Akt western blot)” value in data set [2] was “active”. In addition, the “adhesion at 1 day compared with dishes including the ROCK inhibitor” value in data set [3] is given as “similar”; in data set [3] (listed as LN-532), “no ROCK inhibitor is necessary”. Also, the “cells remaining attached / surviving 24 hours after plating” value in data set [3] (completely dissociated H5181 cells, O3 medium without any additives, no ROCK inhibitor) is given as “survived”. Besides, the “adhesion at 1 day relative to Matrigel without additives” value in data set [3] (without additives) was found to be 20 times. Also, the passages cultured turned out to be 3 passages in data set [4] (ChiPSW cells, mTeSR1); 5 passages in data set [4] (CutB1.2 iPS cells, mTeSR1); 12 passages in data set [4] (H1 cells, TeSR2 (5 months)); 4 passages in data set [4] (HS401 cells, TeSR2 (1.5 months)). Besides, the passages of proliferation is listed as at least 15 passages in data set [4] (H1 cells, O3 medium (6 months)); “at least 24 passages” in data set [4] (HS181 cells, O3 medium (9 months)); at least 5 passages in data set [4] (HS401 cells, O3 medium (2 months)). Further, the “number of mRNA transcripts of Oct4 and Nanog compared with Matrigel” value in data set [5] is listed as “higher numbers of transcripts”. Also, the “binding affinity of integrin α6β1 compared with LN-111” value in data set [6] is reported as “higher”.

Source of the values: patent publication US10138292B2, “Cell culture medium” (BIOLAMINA AB, priority 2010, dated 2018).
